# Laboratory results as given in patent US6506876B1, “LTA4 hydrolase inhibitor pharmaceutical compositions and methods of use” (G.D. Searle & Co., priority 1994, dated 2003).
# Structures can show the parent of a compound that is named as a salt.
# Target: T1, recombinant human LTA4 hydrolase (rhLTA4H) (Homo sapiens, UniProt P09960)
# T1 sequence (P09960 1-611): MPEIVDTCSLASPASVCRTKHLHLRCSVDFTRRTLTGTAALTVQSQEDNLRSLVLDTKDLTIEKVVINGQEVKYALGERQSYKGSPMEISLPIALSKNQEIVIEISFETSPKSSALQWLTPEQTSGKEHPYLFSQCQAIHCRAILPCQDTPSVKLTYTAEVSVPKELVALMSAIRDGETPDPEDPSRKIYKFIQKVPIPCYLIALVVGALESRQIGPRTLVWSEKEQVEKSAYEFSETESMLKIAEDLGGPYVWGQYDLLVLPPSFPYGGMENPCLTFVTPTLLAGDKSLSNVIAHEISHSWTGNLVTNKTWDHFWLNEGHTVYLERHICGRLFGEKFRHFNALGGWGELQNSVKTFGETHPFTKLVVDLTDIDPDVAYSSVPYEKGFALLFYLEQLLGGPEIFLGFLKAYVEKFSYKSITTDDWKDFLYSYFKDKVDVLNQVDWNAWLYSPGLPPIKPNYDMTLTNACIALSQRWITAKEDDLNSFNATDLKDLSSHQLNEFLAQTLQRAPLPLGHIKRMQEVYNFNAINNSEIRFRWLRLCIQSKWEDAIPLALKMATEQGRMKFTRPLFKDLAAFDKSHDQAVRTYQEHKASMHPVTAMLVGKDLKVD
# Assay: Recombinant human LTA4 hydrolase assay for LTA4 hydrolase inhibitor activity
# Conditions: Recombinant Human LTA4 Hydrolase Assay IC50 LTA4H, recombinant hLTA4H
# Experimental: One or more predetermined amounts of a compound of the invention were incubated in assay buffer (0.1 M potassium phosphate, 5 mg/ml fatty acid free BSA, 10% DMSO, pH 7.4) for 10 minutes at room temperature with 250 ng of recombinant hLTA4H to allow binding, if any, between the enzyme and inhibitor. The stock enzyme solution was 1 mg/ml LTA4 hydrolase, 50 mM Tris, pH 8.0, 150 mM NaCl, 2.5 mM beta-mercaptoethanol, 50% glycerol. […] Each reaction was carried out at room temperature for 10 minutes. The reaction was stopped by diluting 25 μl of the reaction mixture with 500 μl of the assay buffer without DMSO. LTB4 was quantified in the diluted sample by a commercially available enzyme-linked immunoassay [Caymen Chemical Co., Ann Arbor, Mich.] using the method recommended in the manufacturer's instructions and compared to the amount of LTB4 produced in a negative control (i.e., essentially identical conditions except without addition of an inhibitor compound). The IC50 was routinely calculated from the data produced.
row,SMILES,IC50
1,CCOC(=O)[C@@H]1CCN(CCOc2ccc(Cc3ccccc3)cc2)[C@H](C)C1 (relative stereo) [Example 298],2500 nM
2,c1ccc(Cc2ccc(OCCn3ccc4ncnc-4c3)cc2)cc1 [340 A],11 nM
3,c1ccc(Cc2ccc(OCCCn3cnc4cccnc43)cc2)cc1 [341 A],5700 nM
4,c1ccc(COc2ccc(OCCn3cccc4ncnc3-4)cc2)cc1 [346 C],2200 nM
5,c1ccc(Oc2ccc(OCCCn3cnc4cccnc43)cc2)cc1 [350 A],19000 nM
6,c1ccc(Oc2ccc(OCCCn3cnc4ccncc43)cc2)cc1 [351 A],1080 nM
7,c1ccc(Cc2ccc(OCCn3cnc4cncnc43)cc2)cc1 [357 B],730 nM
8,c1ccc(Cc2ccc(OCCn3cncc4ncnc3-4)cc2)cc1 [357 D],40 nM
9,c1ccc(Cc2ccc3c(c2)CC(Cn2cnc4cccnc42)O3)cc1 (stereo not drawn) [359 A],100000 nM
10,c1ccc(Cc2ccc3c(c2)CC(Cn2cnc4ncccc42)O3)cc1 (stereo not drawn) [359 B],10000 nM
11,c1ccc(Cc2ccc3c(c2)CC(Cn2cccc4ncnc2-4)O3)cc1 (stereo not drawn) [359 C],3500 nM
12,c1ccc(Cc2ccc3c(c2)CC(Cn2nnc4ncccc42)O3)cc1 (stereo not drawn) [360 C],5000 nM
13,c1ccc(Cc2ccc3c(c2)CC(Cn2nnc4cnccc42)O3)cc1 (stereo not drawn) [361 B],7000 nM
14,"c1ccc(Oc2ccc(OCCN3CCCC3)nc2)cc1 [Example 65, 5-phenoxy-2-[2-(1-pyrrolidinyl)ethoxy]pyridine]",110 nM
15,"c1ccc(Oc2ccc(NCCN3CCCC3)cc2)cc1 [Example 71, N-(4-phenoxyphenyl)-1-pyrrolidine ethanamine, monohydrochloride]",6500 nM
16,Clc1cc(OCCN2CCCC2)ccc1Cc1ccccc1 [Example 114],3000 nM
17,Cc1cc(Cc2ccccc2)ccc1OCCN1CCCC1 [Example 117],3900 nM
18,Cc1cc(OCCN2CCCC2)ccc1Cc1ccccc1 [Example 118],9000 nM
19,Fc1cc(Cc2ccccc2)cc(F)c1OCCN1CCCC1 [Example 119],4000 nM
20,Fc1cc(OCCN2CCCC2)c(F)cc1Cc1ccccc1 [Example 120],8000 nM
21,COC(=O)c1cc(Cc2ccccc2)ccc1OCCN1CCCC1 [Example 123],7000 nM
22,COc1cc(Cc2ccccc2)ccc1OCCN1CCCC1 [Example 124],25000 nM
23,COc1ccccc1Cc1ccc(OCCN2CCCC2)cc1 [Example 129],16000 nM
24,c1cc(OCCN2CCCC2)ccc1Cc1ccc2c(c1)OCO2 [Example 130],170 nM
25,c1ccc2nc(Cc3ccc(OCCN4CCCC4)cc3)ccc2c1 [Example 131],4300 nM
26,Fc1ccccc1Cc1ccc(OCCN2CCCC2)cc1 [Example 141],13 nM
27,Clc1cccc(Cc2ccc(OCCN3CCCC3)cc2)c1 [Example 143],56 nM

row,SMILES,IC50
1,COc1ccc(Cc2ccc(OCCN3CCCC3)cc2)cc1F [Example 144],80 nM
2,c1ccc2cc(COc3ccc(OCCN4CCCC4)cc3)ccc2c1 [Example 200],350 nM
3,c1ccc2ncc(COc3ccc(OCCN4CCCC4)cc3)cc2c1 [Example 201],330 nM
4,Brc1ccc(COc2ccc(OCCN3CCCC3)cc2)cc1 [Example 203],380 nM
5,Fc1ccc(COc2ccc(OCCN3CCCC3)cc2)cc1 [Example 205],900 nM
6,Clc1cccc(COc2ccc(OCCN3CCCC3)cc2)c1 [Example 206],200 nM
7,Fc1ccccc1COc1ccc(OCCN2CCCC2)cc1 [Example 207],220 nM
8,Cc1ccc(COc2ccc(OCCN3CCCC3)cc2)cc1 [Example 212],3000 nM
9,COc1ccc(COc2ccc(OCCN3CCCC3)cc2)cc1 [Example 213],1300 nM
10,c1ccc2c(COc3ccc(OCCN4CCCC4)cc3)cccc2c1 [Example 214],2800 nM
11,NC(=O)C1CCN(CCOc2ccc(Cc3nccs3)cc2)CC1 [Example 231],5000 nM
12,COc1ccc(Cc2ccc(OCCN3CCC(C(N)=O)CC3)cc2)cc1 [Example 232],2100 nM
13,NC(=O)C1CCN(CCOc2ccc(Cc3ccc(Cl)cc3)cc2)CC1 [Example 234],8000 nM
14,NC(=O)C1CCN(CCOc2ccc(Cc3ccc(F)cc3)cc2)CC1 [Example 235],10000 nM
15,NC(=O)C1CCN(CCOc2ccc(Cc3cccnc3)cc2)CC1 [Example 236],20000 nM
16,NC(=O)C1CCCN(CCOc2ccc(Cc3ccccc3)cc2)C1 (stereo not drawn) [Example 243],70 nM
17,c1ccc(Cc2ccc(OCCN3CCC4(CC3)OCCO4)cc2)cc1 [Example 246],7000 nM
18,CCOC(=O)CCNC(=O)C1CCN(CCOc2ccc(Cc3ccccc3)cc2)CC1 [Example 249],3200 nM
19,CNC(=O)C1CCN(CCOc2ccc(Oc3ccccc3)cc2)CC1 [Example 255],280 nM
20,O=C(CCNCCCOc1ccc(Cc2ccccc2)cc1)OCc1ccccc1 [Example 261],1250 nM
21,CCOC(=O)C1CCCN(CCOc2ccc(Cc3ccccc3)cc2)C1 (stereo not drawn) [Example 270],50000 nM
22,CCOC(=O)CCNCCCCCOc1ccc(Cc2ccccc2)cc1 [Example 274],800 nM
23,c1ccc(Cc2cnc3c(c2)CC(CN2CCCC2)O3)cc1 (stereo not drawn) [Example 287],330 nM
24,c1ccc(Oc2ccc3c(c2)CC(CN2CCCC2)O3)cc1 (stereo not drawn) [Example 289],43 nM
25,c1ccc(Cc2ccc3c(c2)CCC(CN2CCCC2)O3)cc1 (stereo not drawn) [Example 292],7 nM
26,CCOC(=O)CC1CCN(CCCOc2ccc(Cc3ccccc3)cc2)CC1 [Example 302],3000 nM

# Same assay, conditions: at 25 μM
row,SMILES,"Recombinant Human LTA4 Hydrolase Assay, % at 25 μM"
1,"O=C(O)c1ccc(-c2ccc(OCCN3CCCC3)cc2)cc1 [Example 63, 4-[4-[2-(1-pyrrolidinyl)ethoxy]phenyl]benzoic acid]",40% at 25
2,"O=C(O)c1ccc(Oc2ccc(OCCN3CCCC3)cc2)cc1 [Example 64, 4-[4-[2-(1-pyrrolidinyl)ethoxy]phenoxy]benzoic acid]",52% at 25
3,Clc1cccc(Cl)c1COc1ccc(OCCN2CCCC2)cc1 [Example 204],49% at 25
4,Cc1ccccc1COc1ccc(OCCN2CCCC2)cc1 [Example 210],4% at 25 μM

# Same assay, conditions: read-out: Recombinant Human LTA4 Hydrolase Assay, % at 3 μM
row,SMILES,inhibition at 3 µM
1,c1ccc(COc2ccc(OCCn3cnc4cccnc43)cc2)cc1 [346 A],31%
2,Fc1ccc(Oc2ccc(OCCn3cnc4cccnc43)cc2)cc1 [354 A],51%
3,Cc1nc(COc2ccc(OCCN3CCCC3)cc2)cs1 [Example 202],44%
4,O=C(OCc1ccccc1)[C@@H]1CCCN1CCCOc1ccc(Cc2ccccc2)cc1 [Example 228],28%
5,CC(C)(C)OC(=O)C1CCCN1CCCOc1ccc(Cc2ccccc2)cc1 (stereo not drawn) [Example 260],14%
6,CC(C)(C)OC(=O)CCNCCCOc1ccc(Cc2ccccc2)cc1 [Example 268],53%

# Same assay, conditions: read-out: Recombinant Human LTA4 Hydrolase Assay, % at 100 μM
row,SMILES,inhibition at 100 µM
1,c1ccc(Cc2ccc3c(c2)CC(Cn2nnc4cccnc42)O3)cc1 (stereo not drawn) [360 A],36%
2,c1ccc(Cc2ccc3c(c2)CC(Cn2nc4cccnc4n2)O3)cc1 (stereo not drawn) [360 B],19%
3,c1ccc(Cc2ccc3c(c2)CC(Cn2nc4ccncc4n2)O3)cc1 (stereo not drawn) [361 A],24%
4,NC(=O)C1CCN(CCCOc2ccc(Cc3ccccc3)cc2)CC1 [Example 226],4%
5,NC(=O)C1CCCN(CCCOc2ccc(Cc3ccccc3)cc2)C1 (stereo not drawn) [Example 244],15%
6,CC1(CN2CCC(C(N)=O)CC2)Cc2cc(Cc3ccccc3)ccc2O1 (stereo not drawn) [Example 286],41%
